Reference: patent publication US20070258972A1, “Combination of a Histone Deacetylase Inhibitor with a Death Receptor Ligand” (priority 2003, published 2007)

What was measured:
primary AML blasts = experiment: Western analyses of proteins, primary AML blasts; assay type: cell-based, human
Procedure: Western analyses of DR4, DR5, Apo-2L, FADD, Caspase-8, c-FLIPL & S, BID, Caspase-9, Caspase-3, PARP, XIAP, clAP1, survivin and β-actin are performed using specific anti-sera or monoclonal antibodies according to previously reported protocols. Horizontal scanning densitometry was performed on Western blots by using acquisition into Adobe Photo Shop (Apple, Inc., Cupertino, Calif.) and analysis by the NIH Image Program (U.S. National Institutes of Health, Bethesda, Md.). The expression of β-actin was used as a control.

[1] = tested on: DR5 promoter associated with acetylated histones H3 and H4; experiment: ChIP assay, DR5 promoter; assay type: cell-based, human; conditions: 8 hours, Jurkat cells
Procedure: ChIP analysis was performed by a slight modification of a previously described method. Cells are incubated overnight at a density of 0.25×10^8 cells/ ml at 37° C. with 5% CO2. […] Formaldehyde was then added to the cells to a final concentration of 1%, and the cells are gently shaken at room temperature for 10 minutes. Following this, the cells are pelleted, suspended in 1 mL of ice-cold PBS containing protease inhibitors (Complete, Boehringer Mannheim). Cells are again pelleted, re-suspended in 0.5 mL of SDS lysis buffer (1% SDS/1.0 mM EDTA/50 mM Tris.HCl, pH 8.1) and incubated on ice for 20 minutes. Lysates are sonicated with 15-second bursts. Debris was removed from samples by centrifugation for 20 minutes at 15,000×g at 4° C. An aliquot of the chromatin preparation (100 μL) was set aside and designated as Input Fraction. […] Immunoprecipitated DNA (both immunoprecipitation samples and Input) was recovered by phenol/chloroform extraction and ethanol precipitation and analyzed by PCR. […] The optimal reaction conditions for PCR are determined for each primer pair. […] The ratio between the immunoprecipitated DNA and Input DNA was calculated for each treatment and primer set. The fold increases after treatment with LAQ824 was calculated from the indicated ratio.

[2] = tested on: Apo-2L/TRAIL-induced DISC; experiment: Apo-2L/TRAIL-induced DISC analysis; assay type: cell-based, human; conditions: LAQ824 100 nM for 24 hours followed by Apo-2L/TRAIL (100 ng/mL for two hours) versus Apo-2L/TRAIL; not c-FLIPL
Procedure: Untreated or LAQ824 treated SKW 6.4 or Jurkat cells are suspended at a final concentration of 10^6 cells/mL in a pre-warmed, complete RPMI media. Cells are treated with 100 ng/mL Apo-2L/TRAIL for 2 hours at 37° C, followed by washing with 1 mL of ice-cold PBS. Cells are lysed in 500 μL lysis buffer (25 mM Tris-HCl, pH 7.2, 150 mM NaCl, 25 mM NaF, 1 mM benzamidine, 1.0% Triton X-100, 2 μg/mL aprotinin 2 μg/mL leupeptin, 1 μg/mL pepstin-A and 0.1 μg/mL PMSF) for 30 minutes on ice. In the untreated controls, 100 ng/mL Apo-2L/TRAIL was added after lysis of cells, to immunoprecipitate non-stimulated Apo-2L/TRAIL receptors. One-hundred micrograms (100 μg) of the lysates was incubated at 4° C. for 2 hours with 1 μg each of anti-Apo-2L/TRAIL receptor 1 & 2 (DR4 and DR5) antibodies, provided by Immunex Corp., Seattle Wash. The immune-complexes are incubated overnight at 4° C. with 20 μL of protein A-agarose beads (Roche, Indianapolis, Ind.). The beads are recovered by centrifugation and washed twice with the lysis buffer. The pellet was re-suspended in the sample buffer and analyzed by SDS-PAGE and immunoblot analysis using antibodies against caspase-8, DR5, DR4 and FADD.

HDAC = conditions: 5-250 nM; HeLa cell nuclear extracts; previously reported; cited from earlier work

## O=C(/C=C/c1ccc(CN(CCO)CCc2c[nH]c3ccccc23)cc1)NO [LAQ824, N-hydroxy-3-[4-[[(2-hydroxyethyl)[2-(1H-indol-3-yl)ethyl]-amino]methyl]phenyl]-2E-2-propenamide]
Primary AML blasts
  DR4 and DR5 levels: increases
  levels of FLIPL and c-FLIPS: down-regulates
Primary AML blasts; 100 nM or 250 nM, 24 hours
  acetylation of histones H3 and H4: induces
[1]; first of 'respectively' (100 nM / H3)
  increase of DR5 promoter associated with acetylated histones H3 and H4: 3.3 fold
[1]; second of 'respectively' (200 nM / H4)
  increase of DR5 promoter associated with acetylated histones H3 and H4: 5.7 fold
[2]
  recruitment of FADD and caspase-8 into the immunoprecipitates of DR4 & DR5: more recruitment
HDAC
  in vitro HDAC activity: inhibits the in vitro HDAC activity in a dose-dependent manner
